Entries after “also recorded” stand apart in the source; their conditions may differ.
Tested on: E16.5 cortical neurons
Assay: Protection of cortical neurons from axonal degeneration induced by aPKC PS
Type: cell-based, mouse
Settings: 10 μM taxol 2 h prior to and during 2 h treatment of 7 μM aPKC PS
Description: Cerebral cortical cell culture—E16.5 mouse pregnant females were sacrificed by CO2 asphyxia and cervical dislocation. Embryos were removed from uterine horns. Skin, skull, and meninges were removed from embryo heads. The cortex was dissected in L-15 medium (Sigma), digested with 0.025% trypsin/0.221 mM EDTA (Mediatech) for 20 min followed by incubation in 5% horse serum prepared in L-15 medium for 5 min to inhibit trypsin. […]
Image acquisition and analysis—All images were acquired on an inverted Zeiss LSM510 confocal microscope with LSM acquisition software (Carl Zeiss Microscopy). For quantification of P-PKCζ T410 immunoreactivity in cell cultures, exposure time was adjusted to be under the saturation level for the highest immunofluorescence signal and was conserved between the different samples. Mean immunofluorescence intensity level in neuronal cell bodies was measured using FiJi-ImageJ software (NIH). All quantifications were performed on 10 non-overlapping fields in cell cultures from at least three independent experiments and on four non-consecutive sections from at least three animals for in vivo experiments. […]

CC(=O)O[C@H]1C(=O)[C@@]2(C)[C@H]([C@H](OC(=O)c3ccccc3)[C@]3(O)C[C@H](OC(=O)[C@H](O)[C@@H](NC(=O)c4ccccc4)c4ccccc4)C(C)=C1C3(C)C)[C@]1(OC(C)=O)CO[C@@H]1C[C@@H]2O [taxol, reference compound] was tested, and the “axon degeneration induced by aPKC inhibition” value was “reduced; also recorded: partially prevented”.

From patent publication US12134651B2, “Anti-Ryk antibodies and methods of using the same” (The Regents of the University of California, priority 2016, dated 2024)
